Measurements reported in PubChem BioAssay AID248 (DTP/NCI, 2004).
Values joined by “and” are separate entries in the source; they are usually repeats but may differ in a detail not shown here. Equal values may be shown once. Inconclusive results and toxic doses are left out.

Tested on: L1210 leukemia ip in BDF1 mice, survival T/C
Assay: NCI In Vivo Anticancer Drug Screen. Data for tumor model L1210 Leukemia (intraperitoneal) in B6D2F1 (BDF1) mice
Conditions: endpoint: mean survival time, higher = longer survival
Outline: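 In this screen, tumor-bearing mice given compound are compared to those given vehicle, and their survival values are reported as a treated-to-control quotient.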

[1] = dose: 100.0 mg/kg/injection, schedule: Q01DX009 (ip), vehicle: saline
[2] = dose: 200.0 mg/kg/injection, schedule: Q01DX009 (ip), vehicle: saline
[3] = dose: 100.0 mg/kg/injection, schedule: Q01DX001 (ip), vehicle: saline with Tween-80
[4] = dose: 200.0 mg/kg/injection, schedule: Q01DX001 (ip), vehicle: saline with Tween-80
[5] = dose: 400.0 mg/kg/injection, schedule: Q01DX001 (ip), vehicle: saline with Tween-80
[6] = dose: 100.0 mg/kg/injection, schedule: Q04DX003 (ip), vehicle: saline
[7] = dose: 200.0 mg/kg/injection, schedule: Q04DX003 (ip), vehicle: saline
[8] = dose: 400.0 mg/kg/injection, schedule: Q04DX003 (ip), vehicle: saline
[9] = dose: 100.0 mg/kg/injection, schedule: Q01DX009 (ip), vehicle: Klucel (hydroxypropylcellulose) (HPC)
[10] = dose: 200.0 mg/kg/injection, schedule: Q01DX009 (ip), vehicle: Klucel (hydroxypropylcellulose) (HPC)
[11] = dose: 400.0 mg/kg/injection, schedule: Q01DX009 (ip), vehicle: Klucel (hydroxypropylcellulose) (HPC)
[12] = dose: 50.0 mg/kg/injection, schedule: Q01DX001 (ip), vehicle: saline
[13] = dose: 100.0 mg/kg/injection, schedule: Q01DX001 (ip), vehicle: saline
[14] = dose: 200.0 mg/kg/injection, schedule: Q01DX001 (ip), vehicle: saline
[15] = dose: 400.0 mg/kg/injection, schedule: Q01DX001 (ip), vehicle: saline
[16] = dose: 100.0 mg/kg/injection, schedule: Q04DX003 (ip), vehicle: Klucel (hydroxypropylcellulose) (HPC)
[17] = dose: 200.0 mg/kg/injection, schedule: Q04DX003 (ip), vehicle: Klucel (hydroxypropylcellulose) (HPC)
[18] = dose: 400.0 mg/kg/injection, schedule: Q04DX003 (ip), vehicle: Klucel (hydroxypropylcellulose) (HPC)

For `COc1cc(C=Nc2ccc(-c3nc(C)sc3C)cc2)ccc1N(CCCl)CCCl`, the T/C (dose: 11.0 mg/kg/injection, schedule: Q01DX009 (ip), vehicle: carboxymethylcellulose (CMC)) was 200 % of control, the T/C (dose: 11.1 mg/kg/injection, schedule: Q01DX001 (ip), vehicle: carboxymethylcellulose (CMC)) was 118 % of control and the T/C (dose: 16.6 mg/kg/injection, schedule: Q01DX009 (ip), vehicle: carboxymethylcellulose (CMC)) was 90 % of control. For the same molecule, the T/C (dose: 25.0 mg/kg/injection, schedule: Q01DX001 (ip), vehicle: carboxymethylcellulose (CMC)) was 202 % of control.
With `C/C=C/N1CCN(/C=C/C)C1=O` the T/C (dose: 25.0 mg/kg/injection, schedule: Q04DX002 (ip), vehicle: Klucel (hydroxypropylcellulose) (HPC)) was 96 % of control, the T/C (dose: 50.0 mg/kg/injection, schedule: Q04DX002 (ip), vehicle: Klucel (hydroxypropylcellulose) (HPC)) was 102 % of control and the T/C (dose: 100.0 mg/kg/injection, schedule: Q04DX002 (ip), vehicle: Klucel (hydroxypropylcellulose) (HPC)) was 90 % of control.
In the case of `CCCCN(C(=O)OCC)P(=O)(OCC)OCC`, the T/C [1] is reported as 95 % of control and the T/C [2] is reported as 109 % of control.
In the case of `O=C(Nc1ccc(C2=NCCCN2)cc1)c1ccc(C(=O)Nc2ccc(C3=NCCCN3)cc2)c(Cl)c1`, the T/C (dose: 0.04 mg/kg/injection, schedule: Q01DX015 (ip), vehicle: water) is reported as 98 % of control, the T/C (dose: 0.09 mg/kg/injection, schedule: Q01DX015 (ip), vehicle: water) is reported as 101 % of control and the T/C (dose: 0.18 mg/kg/injection, schedule: Q01DX015 (ip), vehicle: water) is reported as 95 % of control. The T/C (dose: 0.37 mg/kg/injection, schedule: Q01DX015 (ip), vehicle: water) was 101 % of control and the T/C (dose: 0.75 mg/kg/injection, schedule: Q01DX015 (ip), vehicle: water) was 107 % of control.
For `CCCCCCCCP(=O)(CCCCCC)CCCCCC`, the T/C [3] was 97 % of control, the T/C [4] was 101 % of control and the T/C [5] was 111 % of control.
`Oc1cccc(C(c2ccccc2)C2CCCCC2)c1` (stereo not drawn) was tested, and the T/C [3] was 98 % of control, the T/C [4] was 88 % of control and the T/C [5] was 98 % of control.
For `CCOC(=O)/C(Cc1ccc2ccccc2n1)=N/O`, the T/C (dose: 50.0 mg/kg/injection, schedule: Q01DX009 (ip), vehicle: saline) was 93 % of control, the T/C [1] was 98 % of control and the T/C [6] was 98 % of control. The T/C [2] was 87 % of control, the T/C [7] was 96 % of control and the T/C [8] was 93 % of control.
For `CSc1ccc(OC(=O)Nc2ccc(Cl)cc2Cl)cc1C`, the T/C [9] was 95 % of control, the T/C [10] was 98 % of control and the T/C [11] was 95 % of control.
With `CN(C)c1ccc(/C=C/C(=O)c2ccc([N+](=O)[O-])cc2)cc1` the T/C (dose: 3.0 mg/kg/injection, schedule: Q01DX009 (ip), vehicle: gum acacia) was 100 % of control, the T/C (dose: 6.0 mg/kg/injection, schedule: Q01DX009 (ip), vehicle: gum acacia) was 96 % of control and the T/C (dose: 12.0 mg/kg/injection, schedule: Q01DX009 (ip), vehicle: gum acacia) was 94 % of control. For the same molecule, the T/C (dose: 12.5 mg/kg/injection, schedule: Q01DX009 (ip), vehicle: gum acacia) was 91 % of control, the T/C (dose: 100.0 mg/kg/injection, schedule: Q01DX009 (ip), vehicle: gum acacia) was 87 % of control and the T/C (dose: 100.0 mg/kg/injection, schedule: Q04DX003 (ip), vehicle: gum acacia) was 89 % of control. The T/C (dose: 200.0 mg/kg/injection, schedule: Q04DX003 (ip), vehicle: gum acacia) was 86 % of control, the T/C (dose: 400.0 mg/kg/injection, schedule: Q01DX009 (ip), vehicle: gum acacia) was 96 % of control and the T/C (dose: 400.0 mg/kg/injection, schedule: Q04DX003 (ip), vehicle: gum acacia) was 89 % of control.
In the case of `CCCCCC(C)(C1=NC(C)(C)CC(C)O1)c1ccccc1` (stereo not drawn), the T/C (dose: 100.0 mg/kg/injection, schedule: Q01DX009 (ip), vehicle: saline sonified) is reported as 93 % of control, the T/C (dose: 200.0 mg/kg/injection, schedule: Q01DX009 (ip), vehicle: saline sonified) is reported as 104 % of control and the T/C (dose: 400.0 mg/kg/injection, schedule: Q01DX009 (ip), vehicle: saline sonified) is reported as 93 % of control.
In the case of `COc1ccc(/C=C\C(=O)OCCCCOC(=O)/C=C/c2ccc(OC)cc2)cc1`, the T/C [12] is reported as 95 % of control, the T/C [13] is reported as 95 % of control and the T/C [14] is reported as 95 % of control. The T/C [15] was 95 % of control.
`c1cncc(CNc2ncn[nH]2)c1` was tested, and the T/C [1] was 103 % of control, the T/C [6] was 97 % of control and the T/C [2] was 97 % of control. For the same molecule, the T/C [7] was 103 % of control, the T/C (dose: 400.0 mg/kg/injection, schedule: Q01DX009 (ip), vehicle: saline) was 103 % of control and the T/C [8] was 95 % of control.
In the case of `O=C1c2ccccc2C[CH]1[Hg][Cl]` (stereo not drawn), the T/C (dose: 5.0 mg/kg/injection, schedule: Q01DX001 (ip), vehicle: saline) is reported as 103 % of control and the T/C (dose: 10.0 mg/kg/injection, schedule: Q01DX001 (ip), vehicle: saline) is reported as 102 % of control.
With `CCCCn1c(=O)cc[nH]c1=O` the T/C [16] was 99 % of control, the T/C [17] was 91 % of control and the T/C [18] was 93 % of control.
`CSc1ccc([N+](=O)[O-])cc1` was tested, and the T/C [16] was 104 % of control and the T/C [17] was 100 % of control.
`CN(C)N=Nc1ccc2[nH]ncc2c1` was tested, and the T/C (dose: 14.5 mg/kg/injection, schedule: Q01DX009 (ip), vehicle: Klucel (hydroxypropylcellulose) (HPC)) was 123 % of control, the T/C (dose: 16.5 mg/kg/injection, schedule: Q04DX003 (ip), vehicle: Klucel (hydroxypropylcellulose) (HPC)) was 100 % of control and the T/C (dose: 25.0 mg/kg/injection, schedule: Q01DX009 (ip), vehicle: Klucel (hydroxypropylcellulose) (HPC)) was 114 % of control. For the same molecule, the T/C (dose: 25.0 mg/kg/injection, schedule: Q04DX003 (ip), vehicle: Klucel (hydroxypropylcellulose) (HPC)) was 107 % of control, the T/C (dose: 33.0 mg/kg/injection, schedule: Q01DX009 (ip), vehicle: Klucel (hydroxypropylcellulose) (HPC)) was 152 % of control and the T/C (dose: 37.5 mg/kg/injection, schedule: Q04DX003 (ip), vehicle: Klucel (hydroxypropylcellulose) (HPC)) was 117 % of control. For the same molecule, the T/C (dose: 50.0 mg/kg/injection, schedule: Q01DX009 (ip), vehicle: Klucel (hydroxypropylcellulose) (HPC)) was 119 % of control and the T/C (dose: 100.0 mg/kg/injection, schedule: Q01DX001 (ip), vehicle: Klucel (hydroxypropylcellulose) (HPC)) was 111 % of control.
`CN=C(N)Nc1ccc(C(=O)O)cc1` was tested, and the T/C (dose: 100.0 mg/kg/injection, schedule: Q01DX009 (ip), vehicle: water) was 102 % of control, the T/C (dose: 100.0 mg/kg/injection, schedule: Q04DX003 (ip), vehicle: water) was 106 % of control and the T/C (dose: 200.0 mg/kg/injection, schedule: Q01DX009 (ip), vehicle: water) was 107 % of control. For the same molecule, the T/C (dose: 200.0 mg/kg/injection, schedule: Q04DX003 (ip), vehicle: water) was 89 % of control, the T/C (dose: 400.0 mg/kg/injection, schedule: Q01DX009 (ip), vehicle: water) was 106 % of control and the T/C (dose: 400.0 mg/kg/injection, schedule: Q04DX003 (ip), vehicle: water) was 91 % of control.
`Cc1cccc(C)c1NC(=O)Nc1ccc(C(=O)O)cc1` was tested, and the T/C [9] was 101 % of control, the T/C [10] was 108 % of control and the T/C [11] was 103 % of control.
For `C/C=C1\CN2CCc3c(n(C)c4ccccc34)C2CC1C(=O)OC` (stereo not drawn), the T/C (dose: 100.0 mg/kg/injection, schedule: Q04DX003 (ip), vehicle: saline with Tween-80) was 101 % of control, the T/C (dose: 200.0 mg/kg/injection, schedule: Q04DX003 (ip), vehicle: saline with Tween-80) was 88 % of control and the T/C (dose: 400.0 mg/kg/injection, schedule: Q04DX003 (ip), vehicle: saline with Tween-80) was 106 % of control.
In the case of `Cc1ccc(C)c(OC(=O)NC2CCCCC2)c1`, the T/C [9] is reported as 93 % of control, the T/C [16] is reported as 101 % of control and the T/C [10] is reported as 92 % of control. The T/C [17] was 104 % of control, the T/C [11] was 95 % of control and the T/C [18] was 98 % of control.
With `O=C1CCCC(=O)NNC(=O)Nc2ccc(cc2)Cc2ccc(cc2)NC(=O)NN1` the T/C [12] was 104 % of control, the T/C [13] was 90 % of control and the T/C [14] was 93 % of control. For the same molecule, the T/C [15] was 93 % of control.
`O=[N+]([O-])c1cccn2cnnc12` was tested, and the T/C (dose: 100.0 mg/kg/injection, schedule: Q01DX001 (ip), vehicle: acetone) was 92 % of control.
For `N#CC(Cl)(Cl)CCl`, the T/C (dose: 12.0 mg/kg/injection, schedule: Q04DX003 (ip), vehicle: saline) was 105 % of control, the T/C (dose: 25.0 mg/kg/injection, schedule: Q04DX003 (ip), vehicle: saline) was 96 % of control and the T/C (dose: 50.0 mg/kg/injection, schedule: Q04DX003 (ip), vehicle: saline) was 96 % of control. For the same molecule, the T/C [6] was 103 % of control and 105 % of control.
